Data on eleven compounds can be found in patent publication US20130011495A1, “ANTIFUNGAL COMPOUNDS AND USE THEREOF” (priority 2009, published 2013).

One may read the inhibition of growth as the share of the control response that was lost under treatment.

Data set [1] concerns esca. The conditions noted are these: 18.5 g/L injected into the trunk; cited from earlier work.
Data set [2] has as its system Phaeomoniella chlamydospora. Put plainly: Mycelial growth on solid medium. The conditions noted are these: for inhibition of growth, dose dependence: 5, 10 and 20 mM (whatever concentration); for inhibition of growth, dose dependence / inhibition of growth: FIG. 5 A; for inhibition of fungal development: FIG. 6 A.
Data set [3] has as its system Phaeoacremonium aleophilum. In words: Mycelial growth on solid medium. The note with it: for inhibition of development, dose dependence: 5, 10 and 20 mM.
The subject of data set [4] is Eutypa lata. The conditions noted are these: pH 4.1; cited from earlier work.
The conditions of data set [5]: cited from earlier work.
Data set [6] concerns leaves. Put plainly: Tests of phytotoxicity (upper limits of amounts). Format: in vivo.
Protocol: According to the invention, the upper limits of amounts of the different products were determined in tests of phytotoxicity. First symptoms appear on the leaves at these amounts. […] These amounts can be slightly different or even greater depending on the sensitivity of the plant.
For data set [7] the following is noted: in vivo; cited from earlier work.
The test system of data set [8] is Inonotus obliquus. The note with it: concentrations of 0.9 and 9 mM; cited from earlier work.
The mark [9] stands for this setting: ferrous salt 10 mM, solid medium pH 4.2, 18 days.
Where [10] appears, read: ferrous salt 10 mM, FIG. 5 B, solid medium pH 4.2, 12 days.
[11] abbreviates: ferrous salt 20 mM, FIG. 5 B, solid medium pH 4.2, 12 days.
The mark [12] stands for this setting: 14C-labeled SA at 10 μM, after 4 hours of absorption.
Where [13] appears, read: Phaeomoniella chlamydospora, 432 h, pH 4.2, read-out: inhibition of growth.
Where [14] appears, read: Phaeoacremonium minimum, 288 h, pH 4.2, read-out: inhibition of growth.
Setting [15] is: ferrous salt 5 mM, solid medium pH 4.2, 18 days.
The mark [16] stands for this setting: sulfate 40 mM in BNM, solid medium pH 4.2, 18 days.
The mark [17] stands for this setting: sulfate 40 mM in BNM, solid medium pH 4.2, 12 days.
Where [18] appears, read: Phaeomoniella chlamydospora, 432 h, pH 4.2, read-out: inhibition of mycelial development.
[19] abbreviates: 40 mM, used as the only nitrogen source (results not shown).

Entries after “also recorded” stand apart in the source; their conditions may differ. Read-outs that look alike come from different tables or passages of the source.

In the case of `O=C([O-])c1ccccc1O.[K+]`, in data set [1], the efficacy on esca is on record as 45.4%.
iron chloride: the “inhibition of growth, dose dependence” value in data set [2] is listed as “dose-dependent inhibition; also recorded: comparable to that obtained with iron sulfate”. The inhibition of growth result is reported as “not the case” in data set [2] (setting [9]), 75% in data set [3] (setting [10]) and “completely inhibited” in data set [3] (setting [11]). In addition, in data set [3] (FIG. 5 B), the “inhibition of development, dose dependence” value was “dose-dependent inhibition”.
As for `O=C(O)c1ccccc1O` [salicylic acid, 2-hydroxybenzoic acid], the “threshold value of antifungal action” value in data set [4] is given as about 0.1 mM. Also, in data set [5] (setting [12]), the “concentration detected in phloem sap” value was 100 µM and the “concentration detected in xylem sap” value was 0.67 µM. For the same compound, the “concentration factor in the phloem” value in data set [5] (pH between 4.6 and 5.0) is recorded as about 10. In addition, in data set [2] (setting [13]), the inhibition at 500 µM was 10% and the inhibition at 1000 µM came to 28%. For the same compound, the “inhibition of fungal development” value in data set [2] (salicylic acid 0.05 mM, solid medium pH 4.2, 18 days) is reported as “does not inhibit”. For the same compound, the “inhibition of fungal development” value in data set [2] (salicylic acid 0.1 mM, solid medium pH 4.2, 18 days) is “does not inhibit”. Also, the inhibition at 500 µM in data set [3] (setting [14]) was determined as 50%. In data set [3] (salicylic acid 0.05 mM, FIG. 6 B, solid medium pH 4.2, 12 days), the inhibition of development entry was “slightly inhibited”. The inhibition of growth result in data set [3] (salicylic acid 1 mM, FIG. 6 B, solid medium pH 4.2, 12 days) is reported as “inhibited completely”.
For `CC(=O)[O-].CC(=O)[O-].[Fe+2]` [iron acetate], the “inhibition of growth, dose dependence” value in data set [2] was “dose-dependent inhibition”. The inhibition of growth is given as 40% in data set [2] (setting [15]), “completely inhibited” in data set [2] (setting [9]), 45% in data set [3] (setting [10]) and “completely inhibited” in data set [3] (setting [11]). The “inhibition of development, dose dependence” value in data set [3] (FIG. 5 B) is “dose-dependent inhibition”.
In the case of `O.O.O.O.O.O.O.O=S(=O)([O-])[O-].[Fe+2]` [iron sulfate], the “upper limit of amount determined in tests of phytotoxicity (first symptoms appear on the leaves)” value in data set [6] (concentration in the composition) came to 160 mM. In addition, the “inhibition of growth, dose dependence” value in data set [2] is reported as “dose-dependent inhibition”. For the same compound, the inhibition in data set [2] (FeSO4 1 mM in BNM, solid medium pH 4.2, 18 days) was 4% inhibition; in data set [2] (FeSO4 2.5 mM in BNM, solid medium pH 4.2, 18 days), 21% inhibition; in data set [2] (FeSO4 5 mM in BNM, solid medium pH 4.2, 18 days), 64% inhibition; in data set [2] (FeSO4 10 mM in BNM, solid medium pH 4.2, 18 days), 95% inhibition; in data set [2] (setting [16]), “completely inhibit”; in data set [2] (sulfate 40 mM in BNM, solid medium pH 4.2, 18 days, listed as FeSO4), 100% inhibition. Besides, the inhibition in data set [3] (FeSO4 1 mM in BNM, solid medium pH 4.2, 12 days) is given as 15% inhibition; in data set [3] (FeSO4 2.5 mM in BNM, solid medium pH 4.2, 12 days), 23.5% inhibition; in data set [3] (FeSO4 5 mM in BNM, solid medium pH 4.2, 12 days) it was 33% inhibition; in data set [3] (FeSO4 10 mM in BNM, solid medium pH 4.2, 12 days), 85% inhibition; in data set [3] (setting [17]) it was “completely inhibit”; in data set [3] (sulfate 40 mM in BNM, solid medium pH 4.2, 12 days, listed as FeSO4), 100% inhibition. In addition, the inhibition of growth was 65% in data set [2] (setting [15]); “not the case” in data set [2] (setting [9]); “more inhibited with iron sulfate than with iron chloride and acetate” in data set [3] (ferrous salt 5 mM, FIG. 5 B, solid medium pH 4.2, 12 days); 75% in data set [3] (setting [10]); “slight development” in data set [3] (setting [11]). Further, the “inhibition of development, dose dependence” value in data set [3] (FIG. 5 B) is on record as “dose-dependent inhibition”.
Consider `CCO[PH](=O)O` [fosetyl-aluminum, aluminum tris-O-ethylphosphonate], for which the “upper limit of amount determined in tests of phytotoxicity (first symptoms appear on the leaves)” value in data set [6] (in vivo) is 81 mM. Also, in data set [7], the “pH of maximum absorption” value is 5.0 and the “time of detection in the phloem exudate after application” value is 30 min. In addition, in data set [2] (setting [18]), the inhibition at 1000 µM was found to be 6%, the inhibition at 1700 µM came to 14%, the inhibition at 2700 µM stood at 46% and the inhibition at 3400 µM is 86%. Also, the “inhibition of mycelial development” value in data set [2] (fosetyl-aluminum 0.3 mM, FIG. 7 A, solid medium pH 4.2, 18 days) is “no effect”. In data set [3] (setting [14]), the inhibition at 1700 µM is about 6%, the inhibition at 2700 µM came to 30% and the inhibition at 3400 µM is 45%. Moreover, the inhibition of growth entry in data set [3] (fosetyl-aluminum 0.3 mM, FIG. 7 B, solid medium pH 4.2, 12 days) is reported as “no effect”. For the same compound, the inhibition of growth result in data set [3] (fosetyl-aluminum 1 mM, FIG. 7 B, solid medium pH 4.2, 12 days) is “no effect”.
Take `O=S(=O)([O-])[O-].[Cu+2]` [CuSO4, copper sulfate]: the inhibition is listed as 100% inhibition in data set [2] (setting [16]); “completely inhibit” in data set [2] (sulfate 40 mM in BNM, solid medium pH 4.2, 18 days, listed as copper sulfate); 100% inhibition in data set [3] (setting [17]); “completely inhibit” in data set [3] (sulfate 40 mM in BNM, solid medium pH 4.2, 12 days, listed as copper sulfate).
`O=S(=O)([O-])[O-].[K+].[K+]` [K2SO4, potassium sulfate]: the inhibition result in data set [2] (setting [16]) and in data set [3] (setting [17]) was “— (—: no inhibition)” in each case.
`O=S(=O)([O-])[O-].[Mg+2]` [MgSO4, magnesium sulfate]: the inhibition result in data set [2] (setting [16]) and in data set [3] (setting [17]) was “— (—: no inhibition)” each time.
As for `N[C@@H](CS)C(=O)O` [cysteine, L-cysteine], the inhibition of development entry in data set [8] is recorded as “inhibits the development”. In data set [2] (setting [13]), the inhibition at 500 µM was 0%, the inhibition at 1000 µM worked out at 13%, the inhibition at 5000 µM came out at 34% and the inhibition at 10000 µM is 80%. In addition, in data set [3] (setting [14]), the inhibition at 500 µM stood at 11%, the inhibition at 1000 µM was 18%, the inhibition at 5000 µM worked out at 24% and the inhibition at 10000 µM came out at 37%.
Take `N.N.O=S(=O)(O)O` [ammonium sulfate]: the growth entry in data set [2] (setting [19]) and in data set [3] (setting [19]) was “slows the growth” throughout. In addition, the inhibition entry in data set [2] (setting [16]) and in data set [3] (setting [17]) was “— (—: no inhibition)” throughout.
